Experimental data from patent US20240229098A1, “BIOLUMINOGENIC ASSAY FOR DRUG-RESISTANCE BACTERIA DETECTION” (priority 2021, published 2024).

What was measured:
firefly luciferase = target: T1, firefly luciferase (Photinus pyralis, UniProt P08659); test: Background bioluminescence and oxidation of pro-luciferin probes on repeated addition of firefly luciferase; type: biochemical; conditions: for bioluminescence emission on additional batches of firefly luciferase: repeated firefly luciferase addition, no β-lactamase
T1 construct: purchased Promega E1701
T1 sequence (P08659 whole entry): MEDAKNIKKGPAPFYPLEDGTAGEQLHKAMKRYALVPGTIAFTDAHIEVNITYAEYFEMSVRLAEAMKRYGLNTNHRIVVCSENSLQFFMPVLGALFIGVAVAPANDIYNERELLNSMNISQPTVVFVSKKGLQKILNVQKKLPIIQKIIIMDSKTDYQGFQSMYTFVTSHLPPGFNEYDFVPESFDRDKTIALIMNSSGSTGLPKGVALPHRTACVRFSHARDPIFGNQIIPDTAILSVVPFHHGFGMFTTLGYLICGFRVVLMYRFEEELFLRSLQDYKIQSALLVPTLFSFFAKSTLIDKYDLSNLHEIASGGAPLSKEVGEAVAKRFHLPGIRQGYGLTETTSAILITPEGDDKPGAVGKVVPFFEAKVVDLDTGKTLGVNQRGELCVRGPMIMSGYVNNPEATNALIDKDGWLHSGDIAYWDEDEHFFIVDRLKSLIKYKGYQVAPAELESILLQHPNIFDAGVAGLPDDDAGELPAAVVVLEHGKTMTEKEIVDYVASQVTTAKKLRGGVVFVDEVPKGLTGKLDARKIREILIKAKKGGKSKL
Procedure: The initial bioluminescent background signal may come from residual D-luciferin present in the sample. High-performance liquid chromatography (HPLC) analysis could not detect any D-luciferin at a concentration below 0.1 μM. However, addition of firefly luciferase can efficiently detect and consume the residual free D-luciferin.
To further confirm the quenching effect of dabcyl in D-Bluco, another control, Am-Bluco, was prepared that is structurally similar to D-Bluco but with dabcyl replaced by a structure lacking the broad absorption between 400 and 530 nm (FIG. 1).

[1] = test system: KPC-3, BlaC, TEM-1, IMP-1, AmpC, OXA-48; test: Bioluminescence with panel of recombinant β-lactamases of clinical relevance; type: biochemical
Procedure: (§1) FIGS. 9A and 9B illustrates bioluminescent studies of D-Bluco and O-Bluco treating with various β-lactamases. 10 μM of Bluco, D-Bluco and O-Bluco incubated with 20 nM TEM-1 for 15 min in PBS at r.t. The bioluminescent signals for each compound was evaluated with or without the addition of TEM-1 by a luminator. […] The relative bioluminescent was calculated by removing background signal in PBS.
Having confirmed the quenching ability of dabcyl to lower D-Bluco bioluminescent background emission, the activity of D-Bluco towards a variety of β-lactamases that are of clinical relevance in addition to TEM-1, including KPC-3, BlaC (Class A), AmpC (Class C), and OXA-48 (Class D) was then assessed. These enzymes were recombinantly expressed and purified. The bioluminescent signal was measured with an IVIS optical imaging system after treating D-Bluco with each enzyme for 2 hours at room temperature.
D-Bluco and O-Bluco were evaluated with various β-lactamase that of clinical relevance (FIG. 9B and 9C), including KPC-3, BlaC, TEM-1 (Class A), IMP-1 (Class B), AmpC (Class C), and OXA-48 (Class D). These enzymes were recombinantly expressed, purified as previously described^25. The bioluminescent signal was measured after incubating O-Bluco or D-Bluco with each enzyme at different concentrations for 2 hr at r.t. […] This compares favorably to previously reported fluorescent cephalosporin probe with a 1000-fold sensitivity improvement.^26
(§2) The caged luciferin probes were incubated with different concentrations of TEM-1 β-lactamase or IMP-1 carbapenemase (0.001-0.1 fmol) in PBS (pH=7.4) for 2 hr at 25° C. Then a mixture of luciferase (200 nM), ATP (2 mM), and MgCl2 (4 mM) was added, and bioluminescent signals were detected with a SpectraMax microplate reader or a luminator.

TEM-1 [2] = target: T2, TEM-1 (Escherichia coli, UniProt P62593); type: biochemical; set-up: made in house; conditions: 10 μM probe, TEM-1 20 nM, 15 min, PBS pH 7.4, r.t.
T2 sequence (P62593 24-286 limits assumed): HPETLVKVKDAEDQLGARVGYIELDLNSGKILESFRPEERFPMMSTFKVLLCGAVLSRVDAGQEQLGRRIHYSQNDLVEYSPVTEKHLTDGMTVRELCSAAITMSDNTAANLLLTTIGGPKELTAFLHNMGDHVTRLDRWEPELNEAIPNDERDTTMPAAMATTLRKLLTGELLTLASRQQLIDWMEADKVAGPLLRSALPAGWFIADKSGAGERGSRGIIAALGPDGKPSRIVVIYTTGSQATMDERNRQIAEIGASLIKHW
Procedure: RLU indicates relative light units.
as §1
The bioluminescence emission from the released D-luciferin was measured. […] Also evaluated was whether there was interference between luciferase and β-lactamases in such dual enzyme reaction system.
The signal to background ratio for D-Bluco, O-Bluco, and Bluco was measured following the addition of the firefly luciferase (fLuc).
as §2

TEM-1 [3] = target: T2, TEM-1; test: Fluorescence turn-on of caged luciferin probes with recombinant TEM-1 bla; type: biochemical; set-up: made in house
Procedure: D-Bluco was evaluated as to whether it could be processed by β-lactamase to release luciferin with one of the most prevalent Ambler class A β-lactamases, TEM-1.
Both probes were evaluated to with TEM-1 bla, one of the most abundant β-Lactamases for initial testing. The fluorescent signal of D-Bluco and O-Bluco incubated with 100 nM TEM-1 bla was examined with a microplate reader over a period of 40 minutes.
General information: All chemicals were purchased from commercial sources and used without further purification. […] QuantiLum Recombinant luciferase (catalog number E1701) was purchased from Promega (Madison, WI). Reaction progress was monitored by analytical thin layer chromatography (TLC) with 0.25 mm silica gel 60F plates and visualized with fluorescent indicator (254 nm). Flash column chromatography was conducted using silica gel (SiliaFlash for flash column, 40-63 μm, 60 Å). The ^1H and ^13C NMR spectra were acquired on a Varian 500 MHz or 600 MHz magnetic resonance spectrometer. Data for ^1H NMR spectra are reported as follows: chemical shifts are reported as δ in units of parts per million (ppm) relative to chloroform-d (δ 7.26, s); multiplicities are reported as follows: s (singlet), d (doublet), t (triplet), q (quartet), dd (doublet of doublets), m (multiplet), or br (broadened); coupling constants are reported as a J value in Hertz (Hz); and the number of protons (n) for a given resonance is indicated nH and based on the spectral integration values. High resolution mass spectra were obtained on a Thermo Exactive Orbitrap LC/MS. HPLC was performed on a Dionex HPLC System (Dionex Corporation) equipped with a GP50 gradient pump and an inline diode array UV-Vis detector. A reversed-phase C18 (Phenomenax, 5 μm, 10×250 mm or Dionex, 5 μm, 4.6×250 mm) column was used with a MeCN (B)/H2O (A) gradient mobile phase containing 0.1% trifluoroacetic acid at a flow of 1 or 3 mL/min for the analysis. Fluorescence Spectra and kinetic experiments were collected by a SpectraMax iD3 multimode microplate reader (Molecular Device, San Jose, CA).

TEM-1 [4] = target: T2, TEM-1; conditions: D-luciferin 10 μM, TEM-1 10, 20, 50, 100 nM, 15 min, PBS pH 7.4
Procedure: (§3) Bioluminescent signal was measured after the addition of bioluminescent reagent. Statistical significance was calculated using the unpaired two-tailed Student's t test (** p<0.01, **** p<0.0001).
(§4) The study was duplicated at room temperature with PBS (pH=7.4). Statistical significance was calculated using the unpaired two-tailed Student's t test (ns: not significant). The study was duplicated at room temperature with PBS (pH=7.4) as the buffer. Data were collected on a SpectraMax iD3 multimode microplate reader.

IMP-1 = IMP-1 (Serratia marcescens, UniProt P52699); conditions: D-luciferin 10 μM, IMP-1 10, 20, 50, 100 nM, 15 min, PBS pH 7.4
Chain of IMP-1 (P52699 19-246): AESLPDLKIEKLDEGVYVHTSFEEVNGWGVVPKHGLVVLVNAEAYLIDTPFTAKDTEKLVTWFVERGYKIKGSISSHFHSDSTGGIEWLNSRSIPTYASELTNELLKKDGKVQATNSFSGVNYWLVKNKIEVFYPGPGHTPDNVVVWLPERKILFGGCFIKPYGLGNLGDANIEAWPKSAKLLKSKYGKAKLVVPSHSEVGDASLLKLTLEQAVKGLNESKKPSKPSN
Procedure: as §3, §4

## O=C(CCCCCNC(=O)c1ccc(NC(=O)c2ccccc2)cc1)NC1C(=O)N2C(C(=O)O)=C(COc3ccc4nc(C5=NC(C(=O)O)CS5)sc4c3)C[S+]([O-])C12 (stereo not shown) [Am-Bluco, 7-(6-(4-benzamidobenzamido)hexanamido)-3-(((2-(4-carboxy-4,5-dihydrothiazol-2-yl)benzo[d]thiazol-6-yl)oxy)methyl)-8-oxo-5-thia-1-azabicyclo[4.2.0]oct-2-ene-2-carboxylic acid 5-oxide]
Firefly luciferase
  oxidation of probe incubated with firefly luciferase (mass spectrometry): oxidized
  bioluminescence emission on additional batches of firefly luciferase: produced bioluminescence emission upon each addition of firefly luciferase

## O=C(Cc1ccccc1)NC1C(=O)N2C(C(=O)O)=C(COc3ccc4nc(C5=N[C@H](C(=O)O)CS5)sc4c3)C[S+]([O-])C12 (stereo partly shown) [Bluco, reference compound]
Firefly luciferase
  oxidation of probe incubated with firefly luciferase (mass spectrometry): oxidized
  bioluminescence emission on additional batches of firefly luciferase: still bioluminescence emission
[1]; each enzyme 2 hours at room temperature, IVIS imaging
  bioluminescence triggered by β-lactamases TEM-1, KPC-3, BlaC, AmpC, OXA-48: significant bioluminescence
TEM-1 [2]
  fold increase in bioluminescence emission upon TEM-1 treatment (turn-on ratio, signal with TEM-1 over signal without TEM-1): 41.3 fold

## O=C(Cc1ccccc1)NC1C(=O)N2C(C(=O)O)=C(COc3ccc(COc4ccc5nc(C6=N[C@@H](C(=O)O)CS6)sc5c4)cc3)C3(CC3)SC12 (stereo partly drawn) [O-Bluco, 4-((4-(((2-((S)-4-carboxy-4,5-dihydrothiazol-2-yl)benzo[d]thiazol-6-yl)oxy)methyl)phenoxy)methyl)-7-oxo-8-(2-phenylacetamido)-2-thia-6-azaspiro[bicyclo[4.2.0]octane-3,1′-cyclopropan]-4-ene-5-carboxylic acid]
[1]
  sensitivity improvement over previously reported fluorescent cephalosporin probes: 1000 fold
[1]; KPC-3, BlaC, TEM-1, IMP-1, AmpC, OXA-48, 2 hr at r.t.
  detection limits for the panel of enzymes: within the femtomole range
TEM-1 [3]; 1 μM probe, TEM-1 100 nM, 40 min, PBS pH 7.4, r.t., excitation 330 nm, emission 530 nm
  fold increase in fluorescence emission in the presence of TEM-1: 32.7 fold
TEM-1 [3]; TEM-1 bla 100 nM, monitored over 40 minutes
  course of fluorescence signal with TEM-1 bla: gradual increase of signal
TEM-1 [2]
  fold increase in bioluminescence emission upon TEM-1 treatment (turn-on ratio, signal with TEM-1 over signal without TEM-1): 100.5 fold

## O=C(O)[C@H]1CSC(c2nc3ccc(O)cc3s2)=N1 [D-luciferin]
TEM-1 [4]
  difference in bioluminescent signal of D-luciferin with or without TEM-1: No significant differences
IMP-1
  difference in bioluminescent signal of D-luciferin with or without IMP-1: No significant differences
